Publication PMC11286609, “In vitro and in vivo analyses of eFAP: a novel FAP-targeting small molecule for radionuclide theranostics and other oncological interventions” (EJNMMI Radiopharmacy and Chemistry, 2024)

Assays:
[1] = test system: PS-1 cells; assay: Confocal microscopy of fluorescent tracer uptake, PS-1; assay type: cell-based
Experimental: (§1) Cell experiments were performed with the human sarcoma HT1080 cell line, stably transduced with human FAP (HT1080-huFAP) which were kindly provided by Prof. Dr. Uwe Haberkorn from the University of Heidelberg. The wild type HT1080 (ATTC), hereafter HT080-WT, was used as a negative control. Additionally, the pancreatic stellate cells PS-1, obtained from Queen Mary University, were used as an endogenously FAP expressing cell line. HT1080-huFAP and HT1080-WT cells were cultured in DMEM Glutamax© (Gibco; Breda, The Netherlands) and the PS-1 cells were cultured in RPMI (Gibco). Both media were supplemented with 10% FBS (Gibco), 100 UI/mL penicillin, and 100 µg/mL streptomycin (Merck Life Science NV; Amsterdam, The Netherlands). All cell lines were regularly passaged at 80% confluence and cultured at 37 °C, 5% CO2.
(§2) Fluorescent tracer uptake was analyzed on HT1080-huFAP, HT1080-WT, and PS-1 cells. One day prior to the assay 280,000 HT1080-huFAP, 300,000 HT1080-WT, and 460,000 PS-1 cells were seeded on […] coverslips in a 6-well plate. […] Cells incubated only in medium were taken along to correct for auto-fluorescence. […] Analyses were performed in Fiji (Schindelin et al. [2012]) and were subjected to a custom-made macro to correct for auto-fluorescence signal. […]

[2] = test system: HT1080-huFAP cells; assay: Confocal microscopy of fluorescent tracer uptake, HT1080-huFAP; assay type: cell-based, human
Experimental: as §1, §2

[3] = Stability in human serum at 37 °C (radio-HPLC / LC-MS); assay type: in vitro ADME; settings: % intact labeled ligand, human serum, 37 °C
Experimental: (§3) For the stability assessment of eFAP-6, [^111In]In-eFAP-6 or [^177Lu]Lu-eFAP-6 (~ 3–7 MBq, 20 µL) was mixed with 180 µL of PBS (0.01 M, pH 7.4) and incubated at 37 °C for up to 24 h. A sample of the PBS solution was directly injected on the radio-HPLC at 1, 4, and 24 h after incubation. Additionally, [^111In]In-eFAP-6 and [^177Lu]Lu-eFAP-6 (5–15 MBq, 50 µL) were incubated with 350 µL of commercially acquired mouse or human serum (Biolegend; San Diego, CA, USA) at 37 °C for up to 24 h. Following 1, 4, and 24 h of incubation, 50 µL of the solution were mixed with 50 µL of acetonitrile in an Eppendorf tube, and centrifuged at 5000× g for 20 min. The supernatant was then analyzed by radio-HPLC. Stability studies of eFAP-7 were performed by incubation of eFAP-7 (50 µL, 10^− 4 M) in 450 µL PBS or serum at 37 °C for up to 24 h. After 1, 4, and 24 h of incubation, 50 µL of the PBS incubation solution were directly analyzed by liquid chromatography-mass spectrometry (LC-MS), while 50 µL of the serum solution was mixed with 50 µL of acetonitrile in an Eppendorf tube, and centrifuged at 5000× g for 20 min, followed by LC-MS analyses.

[4] = Stability in PBS at 37 °C (radio-HPLC / LC-MS); assay type: physicochemical; settings: % intact labeled ligand, 37 °C
Experimental: as §3

[5] = test system: HT1080-WT cells; assay: Confocal microscopy of fluorescent tracer uptake, HT1080-WT; assay type: cell-based, human; settings: HT1080-WT (FAP-negative control), 1 nM
Experimental: as §1, §2

[6] = LogD7.4 shake-flask method (n-octanol/PBS); assay type: physicochemical; settings: n-octanol/PBS (1:1 v/v); n-octanol/PBS pH 7.4, shake-flask
Experimental: The distribution coefficients (LogD7.4) were determined using a shake-flask method, in which 2 µL (~ 0.5 MBq) of [^111In]In-eFAP-6 or 10 µL of eFAP-7 (10^− 4 M) was added to an Eppendorf tube containing 1 mL of PBS (0.01 M, pH 7.4) and n-octanol (v/v, 1:1). After vigorous vortexing, the solution was centrifuged at 2500× g for 15 min for phase separation. For radiolabeled eFAP-6, samples (3 × 10 µL) of the octanol and aqueous phases were taken out and measured in a 1480 Wizard automatic γ-counter (PerkinElmer; Groningen, The Netherlands). LogD7.4 values were calculated by using the following equation: LogD7.4 = log [(counts in octanol phase)/(counts in aqueous phase)]. For eFAP-7, samples (50 µL) of the octanol and aqueous phases were taken out and measured by LC-MS. LogD7.4 values were calculated by using the following equation: LogD7.4 = log [(area in octanol phase)/(area in aqueous phase)].

- Stability (% ± SD) Human serum 1 h ([3]; 1 h): 87.6 ± 0.9%
- Stability (% ± SD) Human serum 4 h ([3]; 4 h): 87.9 ± 2.3%
- Stability (% ± SD) Human serum 24 h ([3]; 24 h): 85.5 ± 2.1%
- Stability (% ± SD) PBS 1 h ([4]; 1 h): 99.5 ± 0.5%
- Stability (% ± SD) PBS 4 h ([4]; 4 h): 99.2 ± 0.7%
- Stability (% ± SD) PBS 24 h ([4]; 24 h): 99.1 ± 0.1%
- logD [6]: -0.94 ± 0.26
Structure (SMILES): CN1/C(=C/C=C/C=C/C2=[N+](CCCCCC(=O)NCCCOc3cccc4c(C(=O)NCC(=O)N5CC(F)(F)C[C@H]5C#N)ccnc34)c3ccc(S(=O)(=O)[O-])cc3C2(C)C)C(C)(C)c2cc(S(=O)(=O)O)ccc21 [eFAP-7, 1-(6-((3-((4-((2-((S)-2-cyano-4,4-difluoropyrrolidin-1-yl)-2-oxoethyl)carbamoyl)quinolin-8-yl)oxy)propyl)amino)-6-oxohexyl)-3,3-dimethyl-5-sulfo-2-((1E,3E)-5-((E)-1,3,3-trimethyl-5-sulfoindolin-2-ylidene)penta-1,3-dien-1-yl)-3H-indol-1-ium]
- sCy5 signal with an excess of UAMC-1110 ([1]; PS-1, 1 nM tracer + 1 mM UAMC-1110): almost no visible signal
- uptake in PS-1 cells relative to HT1080-huFAP ([1]; PS-1, 1 nM, 15 and 45 min): visibly lower than for HT1080-huFAP
- sCy5 signal with an excess of UAMC-1110 ([2]; 1 nM tracer + 1 mM UAMC-1110): almost no visible signal
- sCy5 signal (uptake) in cells ([2]; 1 nM, 15 and 45 min of incubation): a clear signal was visible
- uptake in HT1080-WT cells [5]: no uptake was observed
